Experimental data as given in ChEMBL document CHEMBL4251700, “Novel Staphyloxanthin Inhibitors with Improved Potency against Multidrug Resistant Staphylococcus aureus” (ACS Med Chem Lett, 2018).
Where a chain is given by its changes, count along the chain named. The source made the active and inactive calls. The rule behind the calls is not given here.

Experiments:
[1] = biological target: Voltage-gated inwardly rectifying potassium channel KCNH2 (Homo sapiens, UniProt Q12809); assay: Inhibition of recombinant human ERG expressed in CHO cells at -80 mV holding potential measured after 3 minutes by automated whole cell patch clamp Qpatch method; format: cell-based
Voltage-gated inwardly rectifying potassium channel KCNH2, sequence (Q12809 whole entry): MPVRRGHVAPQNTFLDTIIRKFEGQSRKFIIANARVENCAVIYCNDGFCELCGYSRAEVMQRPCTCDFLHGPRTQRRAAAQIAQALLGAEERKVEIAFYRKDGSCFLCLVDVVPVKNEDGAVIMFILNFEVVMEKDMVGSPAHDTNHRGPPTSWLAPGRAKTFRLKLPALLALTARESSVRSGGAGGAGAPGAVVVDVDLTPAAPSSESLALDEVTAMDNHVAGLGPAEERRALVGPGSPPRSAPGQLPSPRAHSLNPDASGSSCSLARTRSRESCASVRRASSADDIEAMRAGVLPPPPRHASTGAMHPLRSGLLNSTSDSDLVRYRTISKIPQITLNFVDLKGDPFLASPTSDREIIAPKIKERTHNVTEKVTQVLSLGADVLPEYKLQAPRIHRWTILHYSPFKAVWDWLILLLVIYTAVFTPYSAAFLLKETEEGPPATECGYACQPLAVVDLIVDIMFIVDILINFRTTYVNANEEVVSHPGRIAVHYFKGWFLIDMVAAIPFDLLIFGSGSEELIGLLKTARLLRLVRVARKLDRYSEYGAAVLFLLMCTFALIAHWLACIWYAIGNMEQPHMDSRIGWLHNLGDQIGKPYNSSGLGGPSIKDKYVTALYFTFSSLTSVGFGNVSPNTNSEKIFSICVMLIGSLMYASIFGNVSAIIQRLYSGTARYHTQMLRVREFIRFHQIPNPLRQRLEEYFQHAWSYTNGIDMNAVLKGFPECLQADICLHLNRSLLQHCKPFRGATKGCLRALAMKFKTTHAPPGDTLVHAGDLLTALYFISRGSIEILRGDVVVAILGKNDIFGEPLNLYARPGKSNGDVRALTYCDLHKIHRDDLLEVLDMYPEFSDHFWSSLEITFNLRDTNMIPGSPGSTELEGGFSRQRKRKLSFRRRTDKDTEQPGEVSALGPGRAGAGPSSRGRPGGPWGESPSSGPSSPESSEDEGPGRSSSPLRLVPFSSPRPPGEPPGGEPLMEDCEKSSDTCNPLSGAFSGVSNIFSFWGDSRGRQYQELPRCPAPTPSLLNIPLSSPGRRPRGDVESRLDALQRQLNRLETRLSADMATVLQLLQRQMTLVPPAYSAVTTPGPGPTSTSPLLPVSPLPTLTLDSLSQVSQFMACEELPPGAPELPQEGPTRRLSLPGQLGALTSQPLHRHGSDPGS

[2] = Solubility of the compound in water at 10 mg measured after 24 hrs by HPLC method; format: physicochemical
Staphylococcus aureus [3] = assay: Growth inhibition of Staphylococcus aureus Newman at 0.2 mM incubated overnight measured at 30 mins interval; format: organism-based; settings: 0.5 h, 200 µM
Staphylococcus aureus [4] = assay: Growth inhibition of vancomycin-intermediate Staphylococcus aureus Mu50 at 0.2 mM incubated overnight measured at 30 mins interval; format: organism-based; settings: 0.5 h, 200 µM
Trichophyton rubrum = assay: Antifungal activity against Trichophyton rubrum after 7 days by broth microdilution method; format: functional, organism-based
Nannizzia gypsea = assay: Antifungal activity against Microsporum gypseum after 7 days by broth microdilution method; format: functional, organism-based
[5] = biological target: T1, 4,4'-diapophytoene desaturase (4,4'-diaponeurosporene-forming) (Staphylococcus aureus (strain Newman)) (UniProt O07855); assay: Inhibition of CrtN in Staphylococcus aureus Newman assessed as H2O2-induced bacterial death by measuring reduction in bacterial survival at 1 uM pretreated for 24 hrs followed by H2O2 addition measured after 30 mins by serial dilution method; settings: Staphylococcus aureus subsp. aureus str. Newman
T1 sequence (whole entry): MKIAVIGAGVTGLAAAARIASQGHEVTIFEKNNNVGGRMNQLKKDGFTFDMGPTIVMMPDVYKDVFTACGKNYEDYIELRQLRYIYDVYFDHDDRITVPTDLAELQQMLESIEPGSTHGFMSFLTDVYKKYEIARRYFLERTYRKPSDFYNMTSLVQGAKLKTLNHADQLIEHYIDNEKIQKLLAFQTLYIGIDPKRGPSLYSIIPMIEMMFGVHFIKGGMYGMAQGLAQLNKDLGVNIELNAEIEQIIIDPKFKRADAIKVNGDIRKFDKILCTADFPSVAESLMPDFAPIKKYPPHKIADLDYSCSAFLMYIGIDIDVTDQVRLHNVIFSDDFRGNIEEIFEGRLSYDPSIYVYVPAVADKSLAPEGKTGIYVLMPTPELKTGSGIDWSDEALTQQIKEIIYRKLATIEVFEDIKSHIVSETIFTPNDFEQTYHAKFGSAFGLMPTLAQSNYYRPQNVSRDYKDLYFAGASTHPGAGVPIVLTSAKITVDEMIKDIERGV

[6] = biological target: T2, 4,4'-diapophytoene desaturase (4,4'-diaponeurosporene-forming) (Staphylococcus aureus (strain Mu50 / ATCC 700699)) (UniProt Q99R76); assay: Inhibition of CrtN in Staphylococcus aureus Mu50 assessed as H2O2-induced bacterial death by measuring reduction in bacterial survival at 1 uM preincubated for 24 hrs followed by H2O2 addition measured after 30 mins by serial dilution method; settings: Staphylococcus aureus subsp. aureus Mu50
T2 sequence (whole entry): T1 sequence (whole entry)

[7] = biological target: T3, 4,4'-diapophytoene desaturase (4,4'-diaponeurosporene-forming) (Staphylococcus aureus (strain MW2)) (UniProt Q8NUQ6); assay: Inhibition of CrtN in Staphylococcus aureus USA300 LAC assessed as H2O2-induced bacterial death by measuring reduction in bacterial survival at 1 uM preincubated for 24 hrs followed by H2O2 addition measured after 30 mins by serial dilution method; settings: Staphylococcus aureus subsp. aureus USA300
T3 sequence (whole entry): T1 sequence (whole entry) with R500Q

Staphylococcus aureus [8] = assay: Induction of sensitization to immune clearance towards Staphylococcus aureus Newman infected in human whole blood assessed as bacterial killing by measuring bacterial survival after 6 hrs by serial dilution method relative to control; format: functional
Staphylococcus aureus [9] = assay: Induction of sensitization to immune clearance towards Staphylococcus aureus USA300 LAC infected in human whole blood assessed as bacterial killing by measuring bacterial survival after 6 hrs by serial dilution method relative to control; format: functional
Staphylococcus aureus [10] = assay: Antibacterial activity against vancomycin-intermediate Staphylococcus aureus Mu50 infected in BALB/c mouse assessed as reduction of bacterial burden in heart at 0.4 mg, ip bid for 3.5 days administered 6 hrs post bacterial infection measured 84 hrs post infection relative to control; format: functional; design: scale not given: the % may be the effect or the level left
Staphylococcus aureus [11] = assay: Antibacterial activity against vancomycin-intermediate Staphylococcus aureus Mu50 infected in BALB/c mouse assessed as reduction of bacterial burden in liver at 0.4 mg, ip bid for 3.5 days administered 6 hrs post bacterial infection measured 84 hrs post infection; format: functional, organism-based
Staphylococcus aureus [12] = assay: Antibacterial activity against vancomycin-intermediate Staphylococcus aureus Mu50 infected in BALB/c mouse assessed as reduction of bacterial burden in liver at 0.1 mg, ip bid administered at 12 hrs prior to bacterial infection dosed at 12 intervals for 4.5 days; format: functional, organism-based
Staphylococcus aureus [13] = assay: Antibacterial activity against linezolid-resistant Staphylococcus aureus NRS271 infected in BALB/c mouse assessed as reduction of bacterial burden in liver at 0.1 mg, ip bid administered at 12 hrs prior to bacterial infection dosed at 12 intervals for 4.5 days; format: functional, organism-based
Staphylococcus aureus [14] = assay: Antibacterial activity against linezolid-resistant Staphylococcus aureus NRS271 infected in BALB/c mouse assessed as reduction of bacterial burden in liver at 0.4 mg, ip bid administered at 12 hrs prior to bacterial infection dosed at 12 intervals for 4.5 days; format: functional, organism-based
Staphylococcus aureus [15] = assay: Antibacterial activity against linezolid-resistant Staphylococcus aureus NRS271 infected in BALB/c mouse assessed as log reduction of colony forming units in liver at 0.1 mg, ip bid for 3.5 days administered 6 hrs post bacterial infection measured 84 hrs post infection; format: functional
Staphylococcus aureus [16] = assay: Antibacterial activity against linezolid-resistant Staphylococcus aureus NRS271 infected in BALB/c mouse assessed as log reduction of colony forming units in liver at 0.4 mg, ip bid for 3.5 days administered 6 hrs post bacterial infection measured 84 hrs post infection; format: functional
[17] = Half life in human liver microsomes at 2 uM by LC-MS/MS analysis; format: ADME, microsome
[18] = Cytotoxicity against human HepG2 cells after 72 hrs by CCK8 assay; format: cell-based
Staphylococcus aureus [19] = assay: Antibacterial activity against Staphylococcus aureus Newman infected in BALB/c mouse assessed as reduction of bacterial burden in liver at 0.1 mg, ip bid for 3.5 days administered 6 hrs post bacterial infection measured 84 hrs post infection relative to control; design: scale not given: the % may be the effect or the level left

In the case of CN(C/C=C/C=C/c1ccc(C(F)(F)F)cc1)Cc1ccc2c(c1)OCCO2.Cl, the IC50 [1] is reported as 12.1 µM, the solubility at 24 h [2] is reported as 7900 µg/mL and the “growth inhibition (GI)” value (Staphylococcus aureus [3]) is reported as “Non-Toxic”. The “growth inhibition (GI)” value (Staphylococcus aureus [4]) was “Non-Toxic”, the Activity (Trichophyton rubrum) was “inactive” and the Activity (Nannizzia gypsea) was “inactive”. For the same compound, the inhibition [5] was “Active”, the inhibition [6] was “Active” and the inhibition [7] was “Active”. It also gave a Survival (Staphylococcus aureus [8]) of less than 0.5%, a Survival (Staphylococcus aureus [9]) of less than 0.5% and an Activity (Staphylococcus aureus [10]) of 99%. The Activity (Staphylococcus aureus [11]) was “Active”, the Activity (Staphylococcus aureus [12]) was “Active” and the Activity (Staphylococcus aureus [13]) was “Active”. For the same compound, the Activity (Staphylococcus aureus [14]) was “Active”, the Activity (Staphylococcus aureus [15]) was “<=0.75 log10CFU” and the Activity (Staphylococcus aureus [16]) was “<=0.75 log10CFU”. The half-life at 2 µM [17] was 7.9 min, the CC50 at 72 h [18] was 67.8 µM and the Activity (Staphylococcus aureus [19]) was 99%.
